Patent US9464064B2, “HCV helicase inhibitors and methods of use thereof” (University of Kansas, priority 2011, dated 2016)
Where two headings read alike, the source gives them in different places.

How the values were obtained:
[1] = biological target: T1, HCV NS3 helicase NS3h_1b(con1) (Hepatitis C virus genotype 1b, UniProt Q9WMX2); assay: biochemical; format: biochemical, hepatitis C virus genotype 1b(con1)
T1 construct: truncated C-terminally His-tagged NS3 proteins lacking the N-terminal protease, called NS3h; His-tag (C); made in house
T1 sequence (Q9WMX2 1192-1657): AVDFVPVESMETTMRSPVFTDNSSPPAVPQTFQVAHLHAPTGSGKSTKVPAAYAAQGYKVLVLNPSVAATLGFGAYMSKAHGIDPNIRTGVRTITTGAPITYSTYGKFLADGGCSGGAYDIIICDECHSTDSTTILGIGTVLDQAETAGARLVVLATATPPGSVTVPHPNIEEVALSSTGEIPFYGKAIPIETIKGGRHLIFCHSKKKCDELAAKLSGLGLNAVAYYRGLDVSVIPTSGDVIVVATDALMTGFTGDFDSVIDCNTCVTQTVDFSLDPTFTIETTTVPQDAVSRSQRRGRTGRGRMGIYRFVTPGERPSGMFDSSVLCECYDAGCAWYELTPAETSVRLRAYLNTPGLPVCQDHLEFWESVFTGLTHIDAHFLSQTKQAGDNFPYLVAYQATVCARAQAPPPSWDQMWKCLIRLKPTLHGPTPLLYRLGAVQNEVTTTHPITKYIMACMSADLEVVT
In short: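 Molecular beacon helicase assay with His-tagged recombinant NS3 and a Cy5/IBRQ-labelled partially duplex DNA substrate (25 bp) or Tye665-labelled RNA substrate (19 bp). Reactions started with 1 mM ATP. Screening read fluorescence before and 30 min after ATP (ex 643/em 670 nm). For IC50, 5% v/v DMSO was present, initial velocities came from first-order decay fits, and a Hill equation was applied.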

MBHA DNA substrate = assay: Modified FID assay, SYBR Green I; format: binding; conditions: for DNA binding (%): SYBR Green I-FID, average (±SD) percent bound at 100 μM; for FID (SG) % Displaced @ 100 μM / EC50: SYBR Green; for EC50: read-out: FID (SG) EC50 (converted)
Experimental: A modified FID assay, in which ethidium bromide was replaced with SYBR Green I (Invitrogen), was used to estimate a compounds affinity for the MBHA substrate. Reactions were performed as described above except that the DNA substrate was present at 0.32 μM, ethidium bromide was absent, and SYBER Green was present at (0.68 μM). Data were normalized as described above and fit to concentration-response equation using GraphPad Prism software. Titrations with each compound were performed in triplicate, and EC50 values from three independent titrations are reported ±standard deviations.

Huh-7.5 cells = assay: Cell viability assay ([…]-GLO); format: cell-based, human; conditions: for Cell viability (% viable): 10 μM compound, triplicate, average ± SD
Experimental: To assess compound toxicity toward Huh-7.5 cells, cells were plated and treated as above and cell viability was assessed using the […]-GLO luminescent cell viability kit (PROMEGA) following the manufacturer's instructions. Briefly, at the end of a 72 hour incubation period, the medium was aspirated and the cells were washed with 1×PBS, then an equal volume of growth medium and […]-GLO reagent was added and the lysis was initiated by mixing on an orbital shaker. The plate was incubated at 23° C. for 30 minutes and the luciferase activity was measured for 1 second using the FLUOSTAR Omega microplate reader (BMG Labtech).

[2] = DNA-based MBHA, genotype 1b, read-out: DNA Helicase NS3h_1b IC50 (μM) ± SD
[3] = MBHA, DNA unwinding, mean ± SD of three titrations, read-out: Helicase IC50
[4] = genotype 1b (con1), read-out: Target Potency MBHA (IC50 avg., μM) 1b (con1)
[5] = standard HCV helicase MBHA (Table 9), read-out: DNA Unwinding IC50

SMILES | IC50 [1, 2] | IC50 [1, 3] | IC50 [1, 4] | IC50 [1, 5] | DNA binding (%) (MBHA DNA substrate) | FID (SG) % Displaced @ 100 μM (MBHA DNA substrate) | EC50 (MBHA DNA substrate) | Cell Viability (% @ 10 μM) (Huh-7.5 cells) | Cell viability (% viable) (Huh-7.5 cells) | toxicity at highest concentration tested (Huh-7.5 cells; 50 μM)
Cc1ccc2nc(-c3ccc4nc(-c5ccc(NC(=O)c6ccc(C(F)(F)F)cc6)cc5)sc4c3)sc2c1S(=O)(=O)O [Compound 12, 6-methyl-2′-(4-(4-(trifluoromethyl)benzamido)phenyl)-[2,6′-bibenzo[d]thiazole]-7-sulfonic acid] | 2 ± 0.4 µM | 1.8 ± 0.4 µM | 1.8 ± 0.4 µM | 2 µM | 69 ± 9% | 69 ± 9% | 29 ± 9 µM | 90 ± 4% | 90 ± 4% | –
Cc1ccc2nc(-c3ccc4nc(-c5ccc(NC(=O)c6ccc(C(C)(C)C)cc6)cc5)sc4c3)sc2c1S(=O)(=O)O [Compound 13, 2′-(4-(4-(tert-butyl)benzamido)phenyl)-6-methyl-[2,6′-bibenzo[d]thiazole]-7-sulfonic acid] | 8 ± 1 µM | 8.2 ± 1 µM | 8.2 ± 1 µM | 8 ± 1 µM | 72 ± 19% | 72 ± 19% | 16 ± 6 µM | 87 ± 4% | 87 ± 4% | –
Cc1ccc2nc(-c3ccc4nc(-c5ccc(NC(=O)c6ccc(N(C)C)cc6)cc5)sc4c3)sc2c1S(=O)(=O)O [Compound 14, 2′-(4-(4-(dimethylamino)benzamido)phenyl)-6-methyl-[2,6′-bibenzo[d]thiazole]-7-sulfonic acid] | – | 11 ± 6.7 µM | 11 ± 6.7 µM | 11 ± 7 µM | 44 ± 4% | 44 ± 4% | > 100 µM | 94 ± 5% | 94 ± 5% | –
Cc1ccc2nc(-c3ccc4nc(-c5ccc(NC(=O)c6ccc(Br)cc6)cc5)sc4c3)sc2c1S(=O)(=O)O [Compound 15, 2′-(4-(4-bromobenzamido)phenyl)-6-methyl-[2,6′-bibenzo[d]thiazole]-7-sulfonic acid] | 5 ± 3.9 µM | 5.2 ± 4 µM | 5.2 ± 4 µM | 5 ± 4 µM | 70 ± 9% | 70 ± 9% | 30 ± 13 µM | 113 ± 5% | 113 ± 5% | –
Cc1ccc2nc(-c3ccc4nc(-c5ccc(NC(=O)c6ccc(NC(=O)OCC7c8ccccc8-c8ccccc87)cc6)cc5)sc4c3)sc2c1S(=O)(=O)O [Compound 16, 2′-(4-(4-((((9H-fluoren-9-yl)methoxy)carbonyl)amino)benzamido)phenyl)-6-methyl-[2,6′-bibenzo[d]thiazole]-7-sulfonic acid] | – | 5.4 ± 1 µM | 5.4 ± 1 µM | 5 ± 1 µM | 76 ± 5% | 76 ± 5% | 6 ± 2 µM | 92 ± 4% | 92 ± 4% | –
Cc1ccc2nc(-c3ccc4nc(-c5ccc(NC(=O)c6cccc(Cl)c6)cc5)sc4c3)sc2c1S(=O)(=O)O [Compound 17, 2′-(4-(3-chlorobenzamido)phenyl)-6-methyl-[2,6′-bibenzo[d]thiazole]-7-sulfonic acid] | 3 ± 0.8 µM | 2.6 ± 1 µM | 2.6 ± 1 µM | 3 ± 1 µM | 41 ± 11% | 41 ± 11% | > 100 µM | 112 ± 4% | 112 ± 4% | –
Cc1ccc2nc(-c3ccc4nc(-c5ccc(NC(=O)c6ccc(Cl)c(Cl)c6)cc5)sc4c3)sc2c1S(=O)(=O)O [Compound 18, 2′-(4-(3,4-dichlorobenzamido)phenyl)-6-methyl-[2,6′-bibenzo[d]thiazole]-7-sulfonic acid] | 4 ± 1 µM | 3.7 ± 1 µM | 3.7 ± 1 µM | 4 ± 1 µM | 67 ± 12% | 67 ± 12% | 30 ± 32 µM | 114 ± 7% | 114 ± 7% | –
Cc1ccc2nc(-c3ccc4nc(-c5ccc(NC(=O)c6ccccc6C(F)(F)F)cc5)sc4c3)sc2c1S(=O)(=O)O [Compound 19, 6-methyl-2′-(4-(2-(trifluoromethyl)benzamido)phenyl)-[2,6′-bibenzo[d]thiazole]-7-sulfonic acid] | – | 14 ± 1 µM | 14.1 ± 1 µM | 14 ± 1 µM | 30 ± 15% | 30 ± 15% | > 100 µM | 112 ± 1% | 112 ± 1% | –
Cc1ccc2nc(-c3ccc4nc(-c5ccc(NC(=O)c6cccc(C(F)(F)F)c6)cc5)sc4c3)sc2c1S(=O)(=O)O [Compound 20, 6-methyl-2′-(4-(3-(trifluoromethyl)benzamido)phenyl)-[2,6′-bibenzo[d]thiazole]-7-sulfonic acid] | – | 20 ± 12 µM | 19.7 ± 12 µM | – | 46 ± 10% | 46 ± 10% | > 100 µM | 121 ± 3% | 121 ± 3% | –
Cc1ccc2nc(-c3ccc4nc(-c5ccc(NC(=O)c6c(F)cccc6C(F)(F)F)cc5)sc4c3)sc2c1S(=O)(=O)O [Compound 21, 2′-(4-(2-fluoro-6-(trifluoromethyl)benzamido)phenyl)-6-methyl-[2,6′-bibenzo[d]thiazole]-7-sulfonic acid] | – | 17 ± 6 µM | 16.8 ± 6 µM | 17 ± 6 µM | 66 ± 40% | 66 ± 40% | 64 ± 34 µM | 122 ± 2% | 122 ± 2% | –
Cc1ccc2nc(-c3ccc4nc(-c5ccc(NC(=O)c6cccc(C(F)(F)F)c6F)cc5)sc4c3)sc2c1S(=O)(=O)O [Compound 22, 2′-(4-(2-fluoro-3-(trifluoromethyl)benzamido)phenyl)-6-methyl-[2,6′-bibenzo[d]thiazole]-7-sulfonic acid] | – | 9.2 ± 3 µM | 9.2 ± 3 µM | 9 ± 3 µM | 49 ± 27% | 49 ± 27% | > 100 µM | 122 ± 1% | 122 ± 1% | –
Cc1ccc2nc(-c3ccc4nc(-c5ccc(NC(=O)c6ccc(C(F)(F)F)c(F)c6)cc5)sc4c3)sc2c1S(=O)(=O)O [Compound 23, 2′-(4-(3-fluoro-4-(trifluoromethyl)benzamido)phenyl)-6-methyl-[2,6′-bibenzo[d]thiazole]-7-sulfonic acid] | – | 17 ± 17 µM | 17.4 ± 17 µM | 17 ± 17 µM | 66 ± 18% | 66 ± 18% | 28 ± 28 µM | 129 ± 2% | 129 ± 2% | –
Cc1ccc2nc(-c3ccc4nc(-c5ccc(NC(=O)c6cc(C(F)(F)F)cc(C(F)(F)F)c6)cc5)sc4c3)sc2c1S(=O)(=O)O [Compound 24, 2′-(4-(3,5-bis(trifluoromethyl)benzamido)phenyl)-6-methyl-[2,6′-bibenzo[d]thiazole]-7-sulfonic acid] | 22 ± 4.2 µM | 22 ± 4 µM | 22.2 ± 4 µM | 22 ± 4 µM | 43 ± 13% | 43 ± 13% | 86 ± 210 µM | 122 ± 5% | 122 ± 5% | not toxic
Cc1ccc2nc(-c3ccc4nc(-c5ccc(NC(=O)c6cc(C(F)(F)F)ccc6F)cc5)sc4c3)sc2c1S(=O)(=O)O [Compound 25, 2′-(4-(2-fluoro-5-(trifluoromethyl)benzamido)phenyl)-6-methyl-[2,6′-bibenzo[d]thiazole]-7-sulfonic acid] | 6 ± 1.9 µM | 6.4 ± 2 µM | 6.4 ± 2 µM | 6 ± 2 µM | 35 ± 26% | 35 ± 26% | > 100 µM | 132 ± 14% | 132 ± 14% | –
Cc1ccc2nc(-c3ccc4nc(-c5ccc(NC(=O)c6cc(F)ccc6C(F)(F)F)cc5)sc4c3)sc2c1S(=O)(=O)O [Compound 26, 2′-(4-(5-fluoro-2-(trifluoromethyl)benzamido)phenyl)-6-methyl-[2,6′-bibenzo[d]thiazole]-7-sulfonic acid] | – | 19 ± 15 µM | 19 ± 15 µM | 19 ± 15 µM | 35 ± 21% | 35 ± 21% | > 100 µM | 118 ± 4% | 118 ± 4% | –
